{"source": "patent US20230320957A1", "about": "“COMPOSITION FOR ANTI-AGING OR SKIN REGENERATION COMPRISING ISOPROCURCUMENOL” (POSCO, priority 2020, published 2023)", "format_in_all_cases": "cell-based", "key": {"c-myc": {"test_system": "c-myc", "test": "c-myc gene expression by real-time quantitative PCR in HaCaT cells", "conditions": "10 μM, 1 hour, serum-free medium", "source_text": "(§1) Signaling by an EGFR induces the expression of genes important for cell growth and survival through important signaling mediator proteins such as ERK and AKT. The egr1, c-myc, c-jun and c-fos genes are regulated by the EGFR and are well known as genes that promote cell growth and survival.\n(§2) Specifically, Tri-reagent was used for mRNA extraction, cDNA was created by a reverse transcription polymerase chain reaction (RT-PCR) using a poly-A primer and a reverse transcriptase, and real-time quantitative PCR was used to measure the amount of each mRNA. The amount of each mRNA was corrected with the amount of β-actin, which is a constitutive gene."}, "ERK": {"test_system": "ERK", "test": "ERK activation (phosphorylation) by Western blotting in HaCaT cells", "conditions": "10 μM", "method": "(§3) It is well known that the activities of extracellular signal-regulated kinase (ERK) and protein kinase B (AKT) transmit signals necessary for cell growth and survival by the activities of an EGFR. In addition, in Experimental Example 1, it was observed that Isoprocurcumenol generated signals due to activation of the EGFR in the cells of the biosense system for measuring the activities of the EGFR. Accordingly, it was measured whether the activities of the EGFR were induced by Isoprocurcumenol to the activities of the ERK and AKT.\n(§4) Specifically, HaCaT cells were cultured in a serum-free medium, treated with 10 μM of Isoprocurcumenol for 10 minutes, 30 minutes and 60 minutes, respectively, and, thereafter, phosphorylated and activated ERK and AKT were analyzed by Western blotting. As antibodies, a phosphorylation antibody as a marker of activated ERK and AKT, and a general antibody for measuring all thereof were used, respectively."}, "EGFR": {"molecular_target": "EGFR (Homo sapiens, UniProt P00533)", "sequence (P00533 25-1210, species assumed)": "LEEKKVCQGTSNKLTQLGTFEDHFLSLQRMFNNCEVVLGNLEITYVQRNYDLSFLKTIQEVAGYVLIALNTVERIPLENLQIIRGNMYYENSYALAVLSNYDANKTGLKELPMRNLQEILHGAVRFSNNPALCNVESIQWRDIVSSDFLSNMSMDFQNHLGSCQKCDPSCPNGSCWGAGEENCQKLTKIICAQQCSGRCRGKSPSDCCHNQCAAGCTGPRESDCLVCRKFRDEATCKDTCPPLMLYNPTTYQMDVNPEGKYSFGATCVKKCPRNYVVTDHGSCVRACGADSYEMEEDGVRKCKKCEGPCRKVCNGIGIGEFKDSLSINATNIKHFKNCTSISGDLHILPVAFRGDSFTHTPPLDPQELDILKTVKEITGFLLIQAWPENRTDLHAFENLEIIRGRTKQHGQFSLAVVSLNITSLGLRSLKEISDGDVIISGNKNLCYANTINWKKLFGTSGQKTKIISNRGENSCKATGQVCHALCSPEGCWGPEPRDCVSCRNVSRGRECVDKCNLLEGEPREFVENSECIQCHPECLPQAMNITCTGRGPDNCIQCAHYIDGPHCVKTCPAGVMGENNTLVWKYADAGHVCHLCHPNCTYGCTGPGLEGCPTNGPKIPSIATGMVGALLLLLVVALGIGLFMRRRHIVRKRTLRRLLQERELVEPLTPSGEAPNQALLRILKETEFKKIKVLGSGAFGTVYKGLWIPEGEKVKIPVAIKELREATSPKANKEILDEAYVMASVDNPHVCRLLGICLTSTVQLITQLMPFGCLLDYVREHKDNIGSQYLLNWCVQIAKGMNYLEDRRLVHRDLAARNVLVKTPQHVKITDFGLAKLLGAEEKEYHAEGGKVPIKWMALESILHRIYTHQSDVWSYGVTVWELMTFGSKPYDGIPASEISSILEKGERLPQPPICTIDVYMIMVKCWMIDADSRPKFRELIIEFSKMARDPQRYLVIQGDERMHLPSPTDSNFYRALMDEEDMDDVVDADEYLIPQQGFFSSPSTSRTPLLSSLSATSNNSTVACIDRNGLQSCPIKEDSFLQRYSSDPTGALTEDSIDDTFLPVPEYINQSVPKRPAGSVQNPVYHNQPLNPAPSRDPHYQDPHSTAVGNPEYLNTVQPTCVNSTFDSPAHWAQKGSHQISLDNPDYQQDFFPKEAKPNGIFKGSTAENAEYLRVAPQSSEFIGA", "test": "EGFR activity measurement biosensor system (EGFP-SH2 fluorescence)", "conditions": "100 μM; cells cultured 24 hours in serum-free medium; compared to DMSO control", "method": "In addition, by using the feature that, when the activities of the EGFR continue to be maintained, the EGFR is internalized into the cell, the cell of the biosensor system that may measure the activities of the EGFR was used in the present experimentation (see Korean Laid-open Patent Publication No. 2019-0014340).\nAfter culturing the cells in a serum-free medium for 24 hours, the cells were treated with Isoprocurcumenol."}, "c-fos": {"test_system": "c-fos", "test": "c-fos gene expression by real-time quantitative PCR in HaCaT cells", "conditions": "10 μM, 1 hour, serum-free medium", "source_text": "as §1, §2"}, "c-jun": {"test_system": "c-jun", "test": "c-jun gene expression by real-time quantitative PCR in HaCaT cells", "conditions": "10 μM, 1 hour, serum-free medium", "source_text": "as §1, §2"}, "HaCaT cells [1]": {"test_system": "HaCaT cells", "test": "Wound healing assay", "conditions": "1 μM", "method": "The cell growth promoting effect of Isoprocurcumenol was confirmed through wound healing assay. Specifically, after fully culturing HaCaT cells in a 12-well plate, cells on a certain area were scraped off using a yellow tip to form a wound area, changed to a serum-free medium, and treated with 1 μM of Isoprocurcumenol."}, "AKT": {"test_system": "AKT", "test": "AKT activation (phosphorylation) by Western blotting in HaCaT cells", "conditions": "10 μM", "method": "as §3, §4"}, "HaCaT cells [2]": {"test_system": "HaCaT cells", "test": "Resistance to UVB-induced cell damage (CCK-8 viability)", "conditions": "1 μM, UVB 500 mJ/cm2, serum-free medium, negative control about 40%", "method": "Among the ultraviolet wavelengths, UVB wavelengths corresponding to 280 to 315 nm penetrate the epidermal layer where many keratinocytes exist to cause cell damage.\nThe solvent DMSO was used as a negative control group, and the cell viability was measured using the CCK-8 method used in Experimental Example 6."}, "HaCaT cells [3]": {"test_system": "HaCaT cells", "test": "CCK-8 assay of growth and proliferation of keratinocytes", "conditions": "24 hours, serum-free medium, p<0.05", "method": "Cell counting kit-8 (CCK-8) is a water-soluble tetrazolium salt reagent called WST-8 and forms orange-colored water-soluble Formazan by dehydrogenase in the mitochondria of living cells.\nSpecifically, after culturing 1×10^4 HaCaT cells in a 96-well plate for 24 hours, the cells were changed to a serum-free medium to remove the growth factors contained in the medium, and treated with Isoprocurcumenol at the concentrations of 1 nM, 10 nM, 100 nM, 1 μM and 10 μM. […] After cultured for 24 hours, the cells were treated with CCK8, and the cell growth was analyzed by measuring absorbance at 450 nm."}, "egr1": {"test_system": "egr1", "test": "egr1 gene expression by real-time quantitative PCR in HaCaT cells", "conditions": "10 μM, 1 hour, serum-free medium", "source_text": "as §1, §2"}, "HaCaT cells [4]": {"test_system": "HaCaT cells", "test": "MTT cytotoxicity assay in HaCaT keratinocytes", "method": "The cytotoxicity of Isoprocurcumenol was measured using HaCaT cells as keratinocytes.\nWhen cells are treated with MTT tetrazolium which is a yellow water-soluble substrate, such a substrate is reduced to MTT formazan by mitochondrial enzymes, and the color changes to blue-purple. That is, since the blue-violet color appears darker as the number of living cells increases, the blue-violet absorbance at a wavelength of 540 nm reflects the concentration of living cells.\nSpecifically, after culturing cells to fill each well of a 96-well plate, the cells were treated with Isoprocurcumenol at concentrations of 0, 10, 25, 50 and 100 μM, and cultured for 24 hours and 48 hours in a 5% CO2 incubator at 37° C. Thereafter, cell viability was measured using MTT reagent. A control group not treated with Isoprocurcumenol (0 μM) was treated with the same amount of the solvent DMSO."}}, "data": [{"smiles": "C=C1CC(=O)C(=C(C)C)C[C@H]2[C@H]1CC[C@]2(C)O", "note": "[Isoprocurcumenol]", "values": [{"measurement": "c-myc mRNA (corrected with β-actin)", "setting": "c-myc", "result": "increased"}, {"measurement": "time to ERK activation", "setting": "ERK", "result": "≤ 30", "unit": "min"}, {"measurement": "induction of ERK activity", "setting": "ERK; 10 minutes, serum-free medium", "result": "sufficiently induced"}, {"measurement": "EGFR activation (fluorescence signal of biosensor cells)", "setting": "EGFR", "result": "activated"}, {"measurement": "c-fos mRNA (corrected with β-actin)", "setting": "c-fos", "result": "increased"}, {"measurement": "c-jun mRNA (corrected with β-actin)", "setting": "c-jun", "result": "increased"}, {"measurement": "filling of wound area vs negative control", "setting": "HaCaT cells [1]; culture for 6 days, serum-free medium", "result": "more quickly filled"}, {"measurement": "difference in wound area vs negative control", "setting": "HaCaT cells [1]; from the 3rd day, t-test p<0.05", "result": "more significant difference"}, {"measurement": "time to AKT activation", "setting": "AKT", "result": "≤ 30", "unit": "min"}, {"measurement": "induction of AKT activity", "setting": "AKT; 10 minutes, serum-free medium", "result": "sufficiently induced"}, {"measurement": "cells survived after UVB", "setting": "HaCaT cells [2]", "result": "about 60%"}, {"measurement": "growth and proliferation of cells vs negative control", "setting": "HaCaT cells [3]; 10 nM", "result": "significantly increased"}, {"measurement": "growth and proliferation of cells vs negative control", "setting": "HaCaT cells [3]; 100 nM", "result": "significantly increased"}, {"measurement": "growth and proliferation of cells vs negative control", "setting": "HaCaT cells [3]; 1 μM", "result": "significantly increased"}, {"measurement": "growth and proliferation of cells vs negative control", "setting": "HaCaT cells [3]; 10 μM", "result": "significantly increased"}, {"measurement": "egr1 mRNA (corrected with β-actin)", "setting": "egr1", "result": "increased"}, {"measurement": "cytotoxicity in keratinocytes (overall)", "setting": "HaCaT cells [4]; 0-100 μM, 24 hours and 48 hours, MTT", "result": "very low"}, {"measurement": "cytotoxicity (difference in cell viability)", "setting": "HaCaT cells [4]; 100 μM, cultured 48 hours, MTT", "result": 10, "unit": "%"}, {"measurement": "cytotoxicity", "setting": "HaCaT cells [4]; concentration of 10 μM or less", "result": "free of cytotoxicity"}]}]}
